According to article PMC5218480 (PLoS ONE, 2017):

Test system: MV-4-11 cells
Test: Gene expression microarray analysis (Affymetrix PrimeView) and GSEA
Assay type: cell-based, human
Set-up: RFU PODN (11730768_x_at) / Fold change /veh PODN (11730768_x_at) / RFU LINC00158 (11744669_a_at) / Fold change /veh LINC00158 (11744669_a_at) / RFU DUSP10 (11751237_a_at) / Fold change /veh DUSP10 (11751237_a_at) / RFU ID3 (11757404_x_at) / Fold change /veh ID3 (11757404_x_at) / RFU PLEKHG5 (11737974_s_at) / Fold change /veh PLEKHG5 (11737974_s_at) / RFU LRRC4B (11730491_at) / Fold change /veh LRRC4B (11730491_at) / RFU GIMAP4 (11747438_a_at) / Fold change /veh GIMAP4 (11747438_a_at) / RFU KRT8 (11758183_x_at) / Fold change /veh KRT8 (11758183_x_at) / RFU CNN1 (11734310_a_at) / Fold change /veh CNN1 (11734310_a_at) / RFU VPS37D (11726825_at) / Fold change /veh VPS37D (11726825_at) / RFU C10orf10 (11716522_x_at) / Fold change /veh C10orf10 (11716522_x_at) / RFU KIR2DL2 /// KIR2DL4 /// KIR2DL5A /// KIR2DL5B /// KIR2DS1 /// KIR2DS2 /// KIR2DS3 /// KIR2DS4 /// KIR3DL3 /// KIR3DL3 /// KIR3DS1 (11738374_at) / Fold change /veh KIR2DL2 /// KIR2DL4 /// KIR2DL5A /// KIR2DL5B /// KIR2DS1 /// KIR2DS2 /// KIR2DS3 /// KIR2DS4 /// KIR3DL3 /// KIR3DL3 /// KIR3DS1 (11738374_at) / RFU C1QL1 (11718748_at) / Fold change /veh C1QL1 (11718748_at) / RFU TMPRSS4 (11747572_a_at) / Fold change /veh TMPRSS4 (11747572_a_at) / RFU HAMP (11756126_x_at) / Fold change /veh HAMP (11756126_x_at) / RFU RNFT2 (11725882_a_at) / Fold change /veh RNFT2 (11725882_a_at) / RFU NR4A2 (11747474_a_at) / Fold change /veh NR4A2 (11747474_a_at) / RFU ABCC12 (11746883_a_at) / Fold change /veh ABCC12 (11746883_a_at) / RFU TMEM136 (11760407_x_at) / Fold change /veh TMEM136 (11760407_x_at) / RFU CLDN22 /// WWC2 (11732394_at) / Fold change /veh CLDN22 /// WWC2 (11732394_at) / RFU HLA-DPB1 (11760878_x_at) / Fold change /veh HLA-DPB1 (11760878_x_at) / RFU SPINT1 (11716480_a_at) / Fold change /veh SPINT1 (11716480_a_at) / RFU GAP43 (11754022_s_at) / Fold change /veh GAP43 (11754022_s_at) / RFU A4GNT (11735810_at) / Fold change /veh A4GNT (11735810_at) / RFU PRB3 (11715151_x_at) / Fold change /veh PRB3 (11715151_x_at) / RFU TUBB4B (11761932_at) / Fold change /veh TUBB4B (11761932_at) / RFU CAPN14 (11732068_a_at) / Fold change /veh CAPN14 (11732068_a_at) / RFU TMCC2 (11721928_a_at) / Fold change /veh TMCC2 (11721928_a_at) / RFU IRGQ (11745062_a_at) / Fold change /veh IRGQ (11745062_a_at) / RFU FAM174B (11720279_a_at) / Fold change /veh FAM174B (11720279_a_at) / RFU TMPRSS4 (11748680_a_at) / Fold change /veh TMPRSS4 (11748680_a_at) / RFU FAM212B (11763350_a_at) / Fold change /veh FAM212B (11763350_a_at) / RFU PLEKHG5 (11743358_a_at) / Fold change /veh PLEKHG5 (11743358_a_at) / RFU ZSCAN30 (11745921_a_at) / Fold change /veh ZSCAN30 (11745921_a_at) / RFU CMKLR1 (11741424_a_at) / Fold change /veh CMKLR1 (11741424_a_at) / RFU LOC101060620 /// MAPK8IP1 (11723275_at) / Fold change /veh LOC101060620 /// MAPK8IP1 (11723275_at) / RFU SPTSSB (11747773_x_at) / Fold change /veh SPTSSB (11747773_x_at) / RFU PRSS12 (11739890_at) / Fold change /veh PRSS12 (11739890_at) / RFU BIN1 (11741810_x_at) / Fold change /veh BIN1 (11741810_x_at) / RFU WNT11 (11732464_a_at) / Fold change /veh WNT11 (11732464_a_at) / RFU C10orf10 (11716521_a_at) / Fold change /veh C10orf10 (11716521_a_at) / RFU C5orf56 (11738089_at) / Fold change /veh C5orf56 (11738089_at) / RFU CYB561 (11721691_x_at) / Fold change /veh CYB561 (11721691_x_at) / RFU ANKRD19P (11752326_a_at) / Fold change /veh ANKRD19P (11752326_a_at) / RFU OR2T12 /// OR2T33 /// OR2T8 (11738714_s_at) / Fold change /veh OR2T12 /// OR2T33 /// OR2T8 (11738714_s_at) / RFU VCAN (11748164_a_at) / Fold change /veh VCAN (11748164_a_at) / RFU JSRP1 (11732532_at) / Fold change /veh JSRP1 (11732532_at) / RFU KRTAP10-11 (11738290_x_at) / Fold change /veh KRTAP10-11 (11738290_x_at) / RFU MYO3A (11730013_a_at) / Fold change /veh MYO3A (11730013_a_at) / RFU EBF3 (11725865_a_at) / Fold change /veh EBF3 (11725865_a_at) / RFU CAMK2N1 (11719241_x_at) / Fold change /veh CAMK2N1 (11719241_x_at) / RFU C5orf56 (11738088_a_at) / Fold change /veh C5orf56 (11738088_a_at) / RFU OLFML3 (11715873_a_at) / Fold change /veh OLFML3 (11715873_a_at) / RFU LOC100653217 /// NTM (11731650_a_at) / Fold change /veh LOC100653217 /// NTM (11731650_a_at) / RFU MAPK11 (11762145_a_at) / Fold change /veh MAPK11 (11762145_a_at) / RFU FIZ1 (11724087_x_at) / Fold change /veh FIZ1 (11724087_x_at) / RFU OASL (11726364_x_at) / Fold change /veh OASL (11726364_x_at) / RFU SOX15 (11748057_x_at) / Fold change /veh SOX15 (11748057_x_at) / RFU CD79A (11719716_a_at) / Fold change /veh CD79A (11719716_a_at) / RFU HIST1H1D (11736915_at) / Fold change /veh HIST1H1D (11736915_at) / RFU CASKIN2 (11723855_a_at) / Fold change /veh CASKIN2 (11723855_a_at) / RFU LOC730098 (11760151_x_at) / Fold change /veh LOC730098 (11760151_x_at) / RFU OR4N2 (11742367_at) / Fold change /veh OR4N2 (11742367_at) / RFU PRRT2 (11749266_a_at) / Fold change /veh PRRT2 (11749266_a_at) / RFU SNX32 (11753110_a_at) / Fold change /veh SNX32 (11753110_a_at) / RFU CDHR5 (11726645_a_at) / Fold change /veh CDHR5 (11726645_a_at) / RFU RCAN1 (11760418_a_at) / Fold change /veh RCAN1 (11760418_a_at) / RFU FAM167A (11723789_a_at) / Fold change /veh FAM167A (11723789_a_at) / RFU FAM26E (11764081_at) / Fold change /veh FAM26E (11764081_at) / RFU ISYNA1 (11749810_s_at) / Fold change /veh ISYNA1 (11749810_s_at) / RFU ACY1 (11761880_at) / Fold change /veh ACY1 (11761880_at) / RFU 11764098_at / Fold change /veh 11764098_at / RFU SAMD14 (11745864_x_at) / Fold change /veh SAMD14 (11745864_x_at) / RFU NPB (11741838_a_at) / Fold change /veh NPB (11741838_a_at) / RFU TMPRSS6 (11731388_a_at) / Fold change /veh TMPRSS6 (11731388_a_at) / RFU KRTAP10-2 (11738614_at) / Fold change /veh KRTAP10-2 (11738614_at) / RFU ARHGAP8 /// PRR5-ARHGAP8 (11727945_x_at) / Fold change /veh ARHGAP8 /// PRR5-ARHGAP8 (11727945_x_at) / RFU KRTAP5-7 /// NADSYN1 (11734609_at) / Fold change /veh KRTAP5-7 /// NADSYN1 (11734609_at) / RFU RASL12 (11751679_a_at) / Fold change /veh RASL12 (11751679_a_at) / RFU CDKN2B (11736163_a_at) / Fold change /veh CDKN2B (11736163_a_at) / RFU PRF1 (11729649_at) / Fold change /veh PRF1 (11729649_at) / RFU, ZNF638 /// ZNF638-IT1 / Fold change vs veh, ZNF638 /// ZNF638-IT1 / RFU, PANK3 / Fold change vs veh, PANK3 / RFU, SH3YL1 / Fold change vs veh, SH3YL1 / RFU, ZEB2 / Fold change vs veh, ZEB2 / RFU, NRIP1 / Fold change vs veh, NRIP1 / RFU, PTTG1IP / Fold change vs veh, PTTG1IP / RFU, CAPN2 / Fold change vs veh, CAPN2 / RFU, MED14 / Fold change vs veh, MED14 / RFU, SNORA58 / Fold change vs veh, SNORA58 / RFU, C1orf63 / Fold change vs veh, C1orf63 / RFU, LRRFIP1 / Fold change vs veh, LRRFIP1 / RFU, NDUFAF7 / Fold change vs veh, NDUFAF7 / RFU, SLC12A2 / Fold change vs veh, SLC12A2 / RFU, IBTK / Fold change vs veh, IBTK / RFU, ESF1 / Fold change vs veh, ESF1 / Fold change vs veh, TMEM50B / RFU, TAOK1 / Fold change vs veh, TAOK1 / RFU, ACBD3 / Fold change vs veh, ACBD3 / RFU, TMA16 / Fold change vs veh, TMA16 / RFU, RWDD3 / Fold change vs veh, RWDD3 / RFU, BCAT1 / Fold change vs veh, BCAT1 / RFU, EDEM3 / Fold change vs veh, EDEM3 / RFU, TMEM33 / Fold change vs veh, TMEM33 / RFU, WDR75 / Fold change vs veh, WDR75 / RFU, AHCTF1 / Fold change vs veh, AHCTF1 / RFU, TFRC / Fold change vs veh, TFRC / RFU, ZDHHC17 / Fold change vs veh, ZDHHC17 / RFU, NOM1 / Fold change vs veh, NOM1 / RFU, ARL8B / Fold change vs veh, ARL8B / RFU, ZBTB11 / Fold change vs veh, ZBTB11 / RFU, TAMM41 / Fold change vs veh, TAMM41 / RFU, KIAA1704 /// LOC100996395 / Fold change vs veh, KIAA1704 /// LOC100996395 / RFU, ING1 / Fold change vs veh, ING1 / RFU, TRMT61B / Fold change vs veh, TRMT61B / RFU, FUBP3 / Fold change vs veh, FUBP3 / RFU, TP53 / Fold change vs veh, TP53 / RFU, TNKS2 / Fold change vs veh, TNKS2 / RFU, ZFP14 / Fold change vs veh, ZFP14 / RFU, ACTR2 / Fold change vs veh, ACTR2 / RFU, PPP3R1 / Fold change vs veh, PPP3R1 / RFU, PIK3R1 / Fold change vs veh, PIK3R1 / RFU, HNRNPA1 / Fold change vs veh, HNRNPA1 / RFU, RNF170 / Fold change vs veh, RNF170 / RFU, ZNF28 / Fold change vs veh, ZNF28 / RFU, RNGTT / Fold change vs veh, RNGTT / RFU, OGT / Fold change vs veh, OGT / RFU, BRD1 / Fold change vs veh, BRD1 / RFU, MARS / Fold change vs veh, MARS / RFU, ZNF655 / Fold change vs veh, ZNF655 / RFU, FAHD1 / Fold change vs veh, FAHD1 / RFU, BDP1 / Fold change vs veh, BDP1 / RFU, LRRCC1 / Fold change vs veh, LRRCC1 / RFU, ARID1A / Fold change vs veh, ARID1A / RFU, ZNF146 / Fold change vs veh, ZNF146 / RFU, ZNF330 / Fold change vs veh, ZNF330 / RFU, GPN3 / Fold change vs veh, GPN3 / RFU, C9orf123 / Fold change vs veh, C9orf123 / RFU, N4BP2L2 / Fold change vs veh, N4BP2L2 / RFU, ARFIP1 / Fold change vs veh, ARFIP1 / RFU, FAM179B / Fold change vs veh, FAM179B / RFU, BCL10 / Fold change vs veh, BCL10 / RFU, UHRF1BP1L / Fold change vs veh, UHRF1BP1L / RFU, BET1 / Fold change vs veh, BET1 / RFU, CNOT2 / Fold change vs veh, CNOT2 / RFU, ZNF268 / Fold change vs veh, ZNF268 / Fold change vs veh, ZNF507 / RFU, DGCR2 / Fold change vs veh, DGCR2 / RFU, WDSUB1 / Fold change vs veh, WDSUB1 / Fold change vs veh, HSP90B1 /// MIR3652 / RFU, ADSS / Fold change vs veh, ADSS / RFU, GK / Fold change vs veh, GK / RFU, ZNF148 / Fold change vs veh, ZNF148 / RFU, TAF9 / Fold change vs veh, TAF9 / RFU, SLC1A5 / Fold change vs veh, SLC1A5 / RFU, SLMO2 / Fold change vs veh, SLMO2 / RFU, ABCC4 / Fold change vs veh, ABCC4 / RFU, LOC101060439 /// RAP1B / Fold change vs veh, LOC101060439 /// RAP1B / RFU, RFX7 / Fold change vs veh, RFX7 / RFU, GTPBP10 / Fold change vs veh, GTPBP10 / RFU, CNEP1R1 / Fold change vs veh, CNEP1R1 / RFU, BIVM-ERCC5 /// ERCC5 / Fold change vs veh, BIVM-ERCC5 /// ERCC5 / RFU, ILF3 / Fold change vs veh, ILF3 / RFU 11762660_at / Fold change /veh 11762660_at / RFU VCAN (11757783_s_at) / Fold change /veh VCAN (11757783_s_at) / RFU DDX43 (11728927_at) / Fold change /veh DDX43 (11728927_at) / RFU KRT8 (11758188_x_at) / Fold change /veh KRT8 (11758188_x_at) / RFU NKD1 (11759106_at) / Fold change /veh NKD1 (11759106_at) / RFU SRD5A1 (11742802_a_at) / Fold change /veh SRD5A1 (11742802_a_at) / RFU TPSAB1 /// TPSB2 (11721975_s_at) / Fold change /veh TPSAB1 /// TPSB2 (11721975_s_at) / RFU GSTM3 (11746129_a_at) / Fold change /veh GSTM3 (11746129_a_at) / RFU IL23R (11737362_x_at) / Fold change /veh IL23R (11737362_x_at) / RFU TMEM51 (11727254_a_at) / Fold change /veh TMEM51 (11727254_a_at) / RFU PIWIL2 (11732686_x_at) / Fold change /veh PIWIL2 (11732686_x_at) / RFU ORM1 (11744905_x_at) / Fold change /veh ORM1 (11744905_x_at) / RFU CCDC152 (11743942_at) / Fold change /veh CCDC152 (11743942_at) / RFU ECM1 (11717891_a_at) / Fold change /veh ECM1 (11717891_a_at) / RFU IL23R (11748794_a_at) / Fold change /veh IL23R (11748794_a_at) / RFU TNFAIP8L3 (11732012_x_at) / Fold change /veh TNFAIP8L3 (11732012_x_at) / RFU MBOAT4 (11741988_at) / Fold change /veh MBOAT4 (11741988_at) / RFU 11764193_at / Fold change /veh 11764193_at / RFU TMEM53 (11763286_at) / Fold change /veh TMEM53 (11763286_at) / RFU MAGEB2 (11727129_at) / Fold change /veh MAGEB2 (11727129_at) / RFU TMEM200A (11744735_a_at) / Fold change /veh TMEM200A (11744735_a_at) / RFU CCDC152 (11751479_a_at) / Fold change /veh CCDC152 (11751479_a_at) / RFU FAM211A (11726209_a_at) / Fold change /veh FAM211A (11726209_a_at) / RFU RGS16 (11746705_a_at) / Fold change /veh RGS16 (11746705_a_at) / RFU VCAN (11755009_s_at) / Fold change /veh VCAN (11755009_s_at) / RFU RHOB (11743442_s_at) / Fold change /veh RHOB (11743442_s_at) / RFU RGS16 (11720943_a_at) / Fold change /veh RGS16 (11720943_a_at) / RFU RGS16 (11720944_at) / Fold change /veh RGS16 (11720944_at) / RFU, VPS4B / Fold change vs veh, VPS4B / RFU, CREB1 / Fold change vs veh, CREB1 / RFU, DNAJC13 / Fold change vs veh, DNAJC13 / RFU, GNAQ / Fold change vs veh, GNAQ / RFU, CDK5R1 / Fold change vs veh, CDK5R1 / RFU, ZRANB3 / Fold change vs veh, ZRANB3 / RFU, CUL4A / Fold change vs veh, CUL4A / RFU, CCNY / Fold change vs veh, CCNY / RFU, UFL1 / Fold change vs veh, UFL1 / RFU, COG3 / Fold change vs veh, COG3 / RFU, DIAPH2 / Fold change vs veh, DIAPH2 / RFU, SKA2 / Fold change vs veh, SKA2 / RFU, AFF3 / Fold change vs veh, AFF3 / RFU, LMF1 / Fold change vs veh, LMF1 / RFU, IPO11 / Fold change vs veh, IPO11 / RFU, DFFB / Fold change vs veh, DFFB / RFU, FOXP1 / Fold change vs veh, FOXP1 / RFU, CARD8 / Fold change vs veh, CARD8 / RFU, STRN3 / Fold change vs veh, STRN3 / RFU, ADK / Fold change vs veh, ADK / RFU, RASSF2 / Fold change vs veh, RASSF2 / RFU, WIPF1 / Fold change vs veh, WIPF1 / RFU, LARP1B / Fold change vs veh, LARP1B / RFU, RASA1 / Fold change vs veh, RASA1 / RFU, RB1 / Fold change vs veh, RB1 / RFU, PPFIA1 / Fold change vs veh, PPFIA1 / RFU, MAT2A / Fold change vs veh, MAT2A / RFU, CCT5 / Fold change vs veh, CCT5 / RFU, WDR92 / Fold change vs veh, WDR92 / RFU, CUX1 / Fold change vs veh, CUX1 / RFU, TTC7A / Fold change vs veh, TTC7A / RFU, TMEM135 / Fold change vs veh, TMEM135 / RFU, DEPTOR / Fold change vs veh, DEPTOR / RFU, CPM / Fold change vs veh, CPM / RFU, DNAJB6 / Fold change vs veh, DNAJB6 / RFU, CACNA2D3 / Fold change vs veh, CACNA2D3 / RFU, DTX4 / Fold change vs veh, DTX4 / RFU, TFCP2 / Fold change vs veh, TFCP2 / RFU, GMCL1 /// GMCL1P1 / Fold change vs veh, GMCL1 /// GMCL1P1 / RFU, AEBP2 / Fold change vs veh, AEBP2 / RFU, SNHG1 /// SNORD22 /// SNORD25 /// SNORD26 /// SNORD27 /// SNORD28 /// SNORD29 /// SNORD31 / Fold change vs veh, SNHG1 /// SNORD22 /// SNORD25 /// SNORD26 /// SNORD27 /// SNORD28 /// SNORD29 /// SNORD31 / Fold change (Aza/veh), C12orf56 (ProbeSet 11735607_a_at) / Fold change (ACY-1035/veh), C12orf56 (ProbeSet 11735607_a_at) / Fold change (Aza/veh), FGFR1OP (ProbeSet 11751329_s_at) / Fold change (ACY-1035/veh), FGFR1OP (ProbeSet 11751329_s_at) / Fold change (Aza/veh), VPS36 (ProbeSet 11739960_a_at) / Fold change (ACY-1035/veh), VPS36 (ProbeSet 11739960_a_at) / RFU SYPL1 (11715823_x_at) / Fold change /veh SYPL1 (11715823_x_at) / RFU IGFBP7 (11715501_s_at) / Fold change /veh IGFBP7 (11715501_s_at) / RFU REEP3 (11722064_at) / Fold change /veh REEP3 (11722064_at) / RFU IGLL1 (11728026_x_at) / Fold change /veh IGLL1 (11728026_x_at): dose or concentration left out as unconfirmed
Settings: ProbeSet 11716865_a_at; LIST B

Nc1ccc(-c2cccs2)cc1NC(=O)c1ccc2c(c1)cc(C1CC1)n2CCN1CCOCC1 [ACY-1035]
Fold change vs veh, SLC1A5: 0.85
